Assay results published in ChEMBL document CHEMBL1201862, “PubChem BioAssay data set” (2004).
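Briefly, cells in 96-well plates were exposed to five compound concentrations for 48 h, and endpoints were estimated by linear interpolation. GI50 is the concentration that inhibits growth by half.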 Calls of active or inactive are those of the source. Rule as the data show it: active = GI50 up to about 1.1 µM and inactive = higher.

Tests used:
Experiment in all cases: NCI anticancer screen, dose series, 48 h
M14 = system: M14
NCI-H226 = system: NCI-H226
ACHN = system: ACHN
MDA-MB-231 = system: MDA-MB-231
Hs-578T = system: Hs-578T
HL-60 = system: HL-60
SN12C = system: SN12C
LOX IMVI = system: LOX IMVI
SW-620 = system: SW-620
A549 = system: A549
786-0 = system: 786-0
HOP-92 = system: HOP-92
MCF7 = system: MCF7
OVCAR-8 = system: OVCAR-8
KM12 = system: KM12
HT-29 = system: HT-29
OVCAR-5 = system: OVCAR-5
CAKI-1 = system: CAKI-1
CCRF-CEM = system: CCRF-CEM
SK-MEL-2 = system: SK-MEL-2

Measured: GI50

O=c1cc(NNc2ccc3ccccc3c2)[nH]c(=S)[nH]1
inactive: M14 33.2 µM | NCI-H226 > 100 µM | ACHN 31.6 µM | MDA-MB-231 42.8 µM | Hs-578T 25 µM | HL-60 24.7 µM | SN12C 34.8 µM | LOX IMVI 13 µM | SW-620 18.2 µM | A549 > 100 µM | 786-0 6.75 µM | HOP-92 28.1 µM | MCF7 4.31 µM | OVCAR-8 44.9 µM | KM12 17.7 µM | HT-29 16.4 µM | OVCAR-5 > 100 µM

N#C[C@H](c1nc2ccccc2s1)c1nc2ccccc2nc1Cl
inactive: M14 15.7 µM | NCI-H226 > 100 µM | ACHN 14.2 µM | MDA-MB-231 > 100 µM | Hs-578T 94.6 µM | HL-60 > 100 µM | SN12C > 100 µM | CAKI-1 > 100 µM | SW-620 > 100 µM | A549 32.4 µM | 786-0 > 100 µM | HOP-92 19.1 µM | MCF7 5.56 µM | OVCAR-8 > 100 µM | KM12 80.9 µM | CCRF-CEM > 100 µM | SK-MEL-2 33.7 µM | HT-29 > 100 µM | OVCAR-5 17.9 µM

CC12CC3OC(=O)C1COC14OC5(C2C1=O)C(O)(CCC1C4CC2OC24CC=CC(=O)C14C)C(=O)OC35C (configuration not stated)
inactive: M14 17.2 µM | ACHN 16.4 µM | MDA-MB-231 18.5 µM | Hs-578T > 100 µM | HL-60 8.04 µM | SN12C 21.5 µM | CAKI-1 13 µM | LOX IMVI 11.3 µM | SW-620 12.4 µM | A549 27 µM | 786-0 13.2 µM | HOP-92 21.8 µM | MCF7 8.85 µM | OVCAR-8 43.8 µM | KM12 17.3 µM | CCRF-CEM 4.1 µM | SK-MEL-2 14.5 µM | HT-29 28.5 µM | OVCAR-5 18.4 µM

O=C(/C=C/c1cc(F)ccc1F)OCCc1ccccc1
inactive: M14 > 100 µM | NCI-H226 > 100 µM | ACHN > 100 µM | MDA-MB-231 63 µM | Hs-578T 1.67 µM | HL-60 16.4 µM | CAKI-1 > 100 µM | SW-620 > 100 µM | A549 > 100 µM | 786-0 89.3 µM | HOP-92 40.6 µM | MCF7 42.2 µM | OVCAR-8 > 100 µM | KM12 96.2 µM | CCRF-CEM 38.3 µM | SK-MEL-2 > 100 µM | HT-29 43 µM | OVCAR-5 > 100 µM

CC(=O)Oc1ccc2cc(-c3ccc(OC(C)=O)c(OC(C)=O)c3)c(=O)oc2c1
inactive: M14 74.8 µM | NCI-H226 > 100 µM | ACHN > 100 µM | MDA-MB-231 > 100 µM | Hs-578T 54.2 µM | HL-60 30.5 µM | SN12C > 100 µM | LOX IMVI > 100 µM | SW-620 > 100 µM | A549 73.6 µM | 786-0 > 100 µM | HOP-92 43.4 µM | MCF7 > 100 µM | OVCAR-8 > 100 µM | KM12 32.8 µM | CCRF-CEM 42.1 µM | SK-MEL-2 > 100 µM | HT-29 > 100 µM | OVCAR-5 > 100 µM

O=C(/C=C/c1ccc2c(c1)OCO2)CC(=O)C(=O)c1c[nH]c2ccccc12
inactive: M14 63.2 µM | ACHN 44.2 µM | MDA-MB-231 39.4 µM | Hs-578T 29 µM | HL-60 29.2 µM | SN12C 45.8 µM | CAKI-1 39.5 µM | LOX IMVI 40.2 µM | SW-620 29.4 µM | A549 35.3 µM | 786-0 41.9 µM | HOP-92 81.7 µM | MCF7 32.2 µM | OVCAR-8 37.1 µM | KM12 33.4 µM | CCRF-CEM 26.7 µM | SK-MEL-2 > 100 µM | HT-29 36.3 µM | OVCAR-5 77.4 µM

O=C(Nc1ccc(Cl)cc1)c1cc(S(=O)(=O)Nc2nnc3c(Cl)cc(C(F)(F)F)cn23)c(S)cc1Cl
inactive: M14 > 100 µM | NCI-H226 > 100 µM | ACHN > 100 µM | MDA-MB-231 33.8 µM | Hs-578T 46.5 µM | HL-60 > 100 µM | SN12C 84.5 µM | CAKI-1 > 100 µM | A549 > 100 µM | 786-0 > 100 µM | HOP-92 > 100 µM | MCF7 > 100 µM | OVCAR-8 > 100 µM | KM12 50.4 µM | CCRF-CEM > 100 µM | SK-MEL-2 15 µM | HT-29 51.9 µM | OVCAR-5 > 100 µM

Nc1nc(N)nc(-c2cnc3ccccc3c2)n1
inactive: M14 > 100 µM | NCI-H226 > 100 µM | ACHN > 100 µM | MDA-MB-231 86.7 µM | Hs-578T > 100 µM | SN12C > 100 µM | CAKI-1 > 100 µM | LOX IMVI > 100 µM | SW-620 > 100 µM | A549 > 100 µM | 786-0 > 100 µM | HOP-92 73.5 µM | MCF7 > 100 µM | OVCAR-8 > 100 µM | KM12 > 100 µM | CCRF-CEM 13.4 µM | SK-MEL-2 > 100 µM | OVCAR-5 39.5 µM
